Laboratory results as given in a melting point compilation (Tetko et al.; mined from patent text by program, amines drawn as free bases though some values may be those of a salt).

Row | melting point | Structure (SMILES)
1 | 127 to 128 °C | CC(C)Oc1nc(CO)sc1C(=O)NCc1ccc(Cl)cc1Cl
2 | 107 to 109 °C | Cc1c(O)cccc1C(=O)N[C@@H](Cc1ccccc1)[C@H](O)C(=O)N1CSC(C)(C)[C@H]1C(=O)NCc1ccc(N)cc1
3 | 70 to 74 °C | CC(C)NC(=O)OCC(=O)c1ccccc1F
4 | 157 to 160 °C | O=C(O)CCn1ccc2cc(OCc3ccc4ccccc4n3)ccc21
5 | 229 to 230 °C | CC(=O)Nc1cnn2c1-c1ccccc1N(NC(C)=O)C2(C)C
6 | 106 °C | Clc1ccc2c(c1)CCc1cccc3c1C2CN=C3 (stereo not drawn)
7 | 134 to 135 °C | CCCCC(NC(=O)OCc1ccccc1)P(C)(=O)O (stereo not drawn)
8 | 201 to 204 °C | COc1cc(CCCO)cc2c(O)c(C(=O)NCc3ccc(Cl)cc3)cnc12
9 | 114 to 118 °C | CCOc1nn(Cc2ccc(Cl)cc2Cl)cc1CCCOc1nn(-c2ccccc2)cc1CCC(=O)O
10 | 119 to 121 °C | COC(=O)c1cccc(C=C(C)[N+](=O)[O-])c1O
11 | 179 to 181 °C | Cc1cc(CC(=O)NCc2cccc3c2C(=O)N(C2CCC(=O)NC2=O)C3=O)on1 (stereo not drawn)
12 | 51 to 53 °C | CCN(c1nc(C)cc(N2CCSCC2)n1)c1ccc(C(C)C)cc1I
13 | 67 to 69 °C | CC(C)(C)c1cc(OCCCC#N)cc(C(C)(C)C)c1O
14 | 189 to 190 °C | COc1ccc(S(=O)(=O)Nc2cc(Cl)cc(Cl)c2OC)cc1N1CCNCC1
15 | 85 to 86 °C | COc1cc(N(C)C)c(Cl)cc1C(=O)NC1CCN(Cc2ccccc2)C1 (stereo not drawn)
16 | 253 to 254 °C | O=C(O)c1ccc2c(c1)nc(-c1ccc(Oc3cccc(-c4cccc(Cl)c4)c3)cc1)n2C1CCCCC1
17 | 148 to 150 °C | NC(=O)N1CCC(c2nn(-c3ccccc3)c3cc(Cl)ccc23)CC1
18 | 121 to 123 °C | O=C1NCCN1c1cccc(Cl)c1
19 | 95 to 98 °C | COC(=O)CN(C)C(=O)c1c(OCc2ccccc2)ccc2c(C(F)(F)F)c(OC)ccc12
20 | 150 to 152 °C | Cc1ncncc1NC(=O)c1ccc(-n2nc(C(F)(F)F)cc2C2CC2)c(F)c1

More lines, now with the values behind:

Row | Structure (SMILES) | melting point
21 | Nc1cccc(-n2cnc3c([N+](=O)[O-])cccc32)c1 | 105 to 110 °C
22 | CC#CCn1c(Cl)nc2c1c(=O)n(C)c(=O)n2C | 105 to 108 °C
23 | Cn1cccc1-c1ccc2c(c1)C1(CCCCC1)C(=O)N2 | 210 °C
24 | CN(C)c1c(S(=O)(=O)C(F)(F)F)c(C#N)nn1-c1c(Cl)cc(C(F)(F)F)cc1Cl | 178 to 179 °C
25 | O=C1COC(c2ccccc2)(c2ccccc2)CCN1Cc1ccccc1 | 185 to 186 °C
26 | O=C(O)C1(c2ccc(Cl)cc2)OCC2(CO1)c1ccccc1Oc1ccccc12 | 244 to 246 °C
27 | COc1cccc(C2=C(CN(C)C)COc3ccccc32)c1 | 68 to 71 °C
28 | COc1ccc(-c2ccc3c(c2)CCCC3=O)c2c1OCCO2 | 156 to 158 °C
29 | Cc1cc(Cc2cnc(N[N+](=O)[O-])[nH]c2=O)cnc1C | 212 to 213 °C
30 | CCc1cc([N+](=O)[O-])c(N)c([N+](=O)[O-])c1C | 101 to 102 °C
31 | Cc1ccc(C2c3c(C)c(NCc4ccc(F)cc4)c(C)c(C)c3OC2(C)C)cc1 (stereo not drawn) | 92 to 94 °C
32 | O=c1[nH]c(=O)n(CCCCN2CC=C(c3ccccc3)CC2)c2cc([N+](=O)[O-])ccc12 | 242 to 244 °C
33 | CN1CCN(CCOc2ccc(Nc3ncc4ccc(-c5cccnc5)n4n3)cc2)CC1 | 107 to 110 °C
34 | CCOc1ccc(Nc2nc(NC(CO)CO)nc(N(C)C3CCN(C)CC3)n2)cc1Cl | 84 °C
35 | CCOCc1nc2c(N)nc3cccnc3c2n1CCCON=C1CCN(C(C)=O)CC1 | 162 to 163 °C
36 | CCN1CCN(c2c(F)c(N)c3c(=O)c(C(=O)O)cn(C4CC4)c3c2F)CCC1=O | 276 to 278 °C
37 | N#CC(Cc1c[nH]cn1)(c1ccccc1)c1ccc(Cl)cc1 (stereo not drawn) | 135 to 136 °C
38 | O=C(O)C1(S(=O)(=O)c2ccc(OCC#CCN3CCOCC3)cc2)CCN(Cc2ccc(Br)cc2)CC1 | 198 °C
